What follows are compounds tested on parasites (ring stage, in human red blood cell culture) (assay: Parasite LDH growth assay (antiparasite potency, Parasite Assay)). Conditions: 0.7% rings, 2% haematocrit, 72 hours at 37° C., LDH readout of parasite growth.
Type: cell-based, Plasmodium falciparum
Description: Assessing Antiparasite Potency in a Parasite LDH Growth Assay (Parasite Assay)
The parasite stock was maintained at 4% haematocrit in RPMI-Hepes media buffered with sodium bicarbonate and supplemented with 5% heat inactivated human serum and 0.5% albumax.
On the day of assay set up, a blood smear of the parasite culture was Giemsa stained and counted. The parasitemia was adjusted to 0.7% rings and the haematocrit was diluted to 2% in RPMI-Hepes media buffered with sodium bicarbonate and supplemented with 5% heat inactivated human serum and 0.5% albumax. 30 ul of diluted parasites are then added into 10 ul of media+compound in pre-prepared Greiner TC assay plates. Parasite assay plates were placed in gassed humidified boxes in single layer and allowed to incubate at 37° C. for 72 hours. After 72 hours growth, assay plates are sealed with parafilm and frozen flat, in single file at −80° C. overnight. On the following day, assay plates are allowed to thaw at room temperature for 4 hours to which an LDH assay is performed to measure parasite growth.
`CCC1(CC)CC(=O)N([C@@H]2CCOc3ccc(C(=O)NC4c5ccccc5OCC4O)cc32)C(=N)N1` (single isomer, unassigned) [Example 8A] gave an EC50 of 10 nM. `CCC1(CC)CC(=O)N([C@@H]2CCOc3ccc(C(=O)NC4c5ccccc5OCC4O)cc32)C(=N)N1` (single isomer, unassigned) [Example 8B] showed an EC50 of 22 nM. `CCC1(CC)CC(=O)N([C@@H]2CCOc3ccc(C(=O)NC4c5ccccc5OCC4O)cc32)C(=N)N1` (single isomer, unassigned) [Example 8C] was tested, and the EC50 was 120 nM. With `CCC1(CC)CC(=O)N([C@@H]2CCOc3ccc(C(=O)NC4c5ccccc5OCC4O)cc32)C(=N)N1` (single isomer, unassigned) [Example 8D] the EC50 was 86 nM. With `CCC1C[C@@H](N2C(=N)NC(CC)(CC)CC2=O)c2cc(C(=O)N[C@@H]3c4ccccc4C[C@H]3O)ccc2O1` (single isomer, unassigned) [Example 9A] the EC50 was 0.9 nM. Work on `CCC1C[C@@H](N2C(=N)NC(CC)(CC)CC2=O)c2cc(C(=O)N[C@@H]3c4ccccc4C[C@H]3O)ccc2O1` (single isomer, unassigned) [Example 9B] yielded an EC50 of 170 nM. In the case of `CCC1C[C@@H](N2C(=N)NC(CC)(CC)CC2=O)c2cc(C(=O)NC3c4ccccc4OC(C)(C)C3O)ccc2O1` (single isomer, unassigned) [Example 13A], the EC50 is reported as 0.8 nM. With `CCC1(CC)CC(=O)N([C@@H]2CC(COC)Oc3ccc(C(=O)N[C@H]4CC(C)(C)Oc5ccccc54)cc32)C(=N)N1` (single isomer, unassigned) [Example 16A] the EC50 was 0.6 nM. In the case of `CCC1(CC)CC(=O)N([C@@H]2CC(COC)Oc3ccc(C(=O)N[C@H]4CC(C)(C)Oc5ccccc54)cc32)C(=N)N1` (single isomer, unassigned) [Example 16B], the EC50 is reported as 95 nM. `CCC1(CC)CC(=O)N([C@@H]2CCOc3ccc(C(=O)N[C@@H]4c5ccccc5OC(C(F)(F)F)C4O)cc32)C(=N)N1` (single isomer, unassigned) [Example 32A] was tested, and the EC50 was 7.9 nM. For `CCC1(CC)CC(=O)N([C@@H]2CCOc3ccc(C(=O)N[C@@H]4c5ccccc5OC(C(F)(F)F)C4O)cc32)C(=N)N1` (single isomer, unassigned) [Example 32B], the EC50 was 290 nM. Work on `CCC1(CC)CC(=O)N([C@@H]2CC(C)(C)Oc3ccc(C(=O)N[C@@H]4c5ccccc5CC4(C)O)cc32)C(=N)N1` (single isomer, unassigned) [Example 42A] yielded an EC50 of 1 nM. In the case of `CCC1(CC)CC(=O)N([C@@H]2CC(C)(C)Oc3ccc(C(=O)N[C@@H]4c5ccccc5CC4(C)O)cc32)C(=N)N1` (single isomer, unassigned) [Example 42B], the EC50 is reported as 3.2 nM. For `CC(C)[C@]1(C)CC(=O)N([C@@H]2CC(C)(C)Oc3ccc(C(=O)N[C@@H]4c5ccccc5CC4(C)O)cc32)C(=N)N1` (single isomer, unassigned) [Example 43A], the EC50 was 8.1 nM. `CC(C)[C@]1(C)CC(=O)N([C@@H]2CC(C)(C)Oc3ccc(C(=O)N[C@@H]4c5ccccc5CC4(C)O)cc32)C(=N)N1` (single isomer, unassigned) [Example 43B] gave an EC50 of 21 nM. Compound `CCC1(CC)CC(=O)N([C@@H]2CCOc3ccc(C(=O)N[C@@H]4c5ccccc5CC4(C)O)cc32)C(=N)N1` (single isomer, unassigned) [Example 44B] has an EC50 of 2.8 nM. `CC1(C)CC(=O)N([C@@H]2CC(C)(C)Oc3ccc(C(=O)N[C@@H]4c5ccccc5CC4(C)O)cc32)C(=N)N1` (single isomer, unassigned) [Example 54B] was tested, and the EC50 was 160 nM. In the case of `CCC1(CC)C[C@@H](N2C(=N)NC(C)(C)CC2=O)c2cc(C(=O)N[C@@H]3c4ccccc4CC3(C)O)ccc2O1` (single isomer, unassigned) [Example 55A], the EC50 is reported as 24.5 nM. `CCC1(CC)C[C@@H](N2C(=N)NC(C)(C)CC2=O)c2cc(C(=O)N[C@@H]3c4ccccc4CC3(C)O)ccc2O1` (single isomer, unassigned) [Example 55B] gave an EC50 of 83.1 nM. For `CCC1(CC)CC(=O)N([C@@H]2CCOc3ccc(C(=O)N[C@H]4c5ccccc5OCC4(C)O)cc32)C(=N)N1` (single isomer, unassigned) [Example 60B], the EC50 was 1.7 nM. `CCC1(CC)CC(=O)N([C@@H]2CCOc3ccc(C(=O)NC4c5ccccc5OC4(C)COC)cc32)C(=N)N1` (single isomer, unassigned) [Example 64A] gave an EC50 of 12 nM. Work on `CCC1(CC)CC(=O)N([C@@H]2CCOc3ccc(C(=O)NC4c5ccccc5OC4(C)COC)cc32)C(=N)N1` (single isomer, unassigned) [Example 64B] yielded an EC50 of 0.9 nM. Compound `CCC1(CC)CC(=O)N([C@@H]2CCOc3ccc(C(=O)NC4c5ccccc5OC4(C)COC)cc32)C(=N)N1` (single isomer, unassigned) [Example 64C] has an EC50 of 64 nM. `CCC1(CC)CC(=O)N([C@@H]2CCOc3ccc(C(=O)NC4c5ccccc5OC4(C)COC)cc32)C(=N)N1` (single isomer, unassigned) [Example 64D] was tested, and the EC50 was 42 nM. `CCOC(=O)C1(C)Oc2ccccc2C1NC(=O)c1ccc2c(c1)[C@H](N1C(=N)NC(CC)(CC)CC1=O)CCO2` (single isomer, unassigned) [Example 65A] gave an EC50 of 68 nM. In the case of `CCOC(=O)C1(C)Oc2ccccc2C1NC(=O)c1ccc2c(c1)[C@H](N1C(=N)NC(CC)(CC)CC1=O)CCO2` (single isomer, unassigned) [Example 65B], the EC50 is reported as 2.6 nM. With `CCOC(=O)C1(C)Oc2ccccc2C1NC(=O)c1ccc2c(c1)[C@H](N1C(=N)NC(CC)(CC)CC1=O)CCO2` (single isomer, unassigned) [Example 65C] the EC50 was 26 nM. `CCC1(CC)CC(=O)N([C@H]2c3cc(C(=O)N[C@@H]4c5ccccc5OC(C)(C)[C@H]4O)ccc3OC2(C)COC)C(=N)N1` (single isomer, unassigned) [Example 73A] gave an EC50 of 0.3 nM. Work on `CCC1(CC)CC(=O)N([C@H]2c3cc(C(=O)N[C@@H]4c5ccccc5OC(C)(C)[C@H]4O)ccc3OC2(C)COC)C(=N)N1` (single isomer, unassigned) [Example 73B] yielded an EC50 of 1.7 nM. In the case of `CCC1(CC)CC(=O)N([C@H]2c3cc(C(=O)N[C@H]4CC(C)(C)Oc5ccccc54)ccc3O[C@]2(C)COC)C(=N)N1` (single isomer, unassigned) [Example 74A], the EC50 is reported as 0.3 nM. `CCC1(CC)CC(=O)N([C@H]2c3cc(C(=O)N[C@H]4CC(C)(C)Oc5ccccc54)ccc3O[C@]2(C)COC)C(=N)N1` (single isomer, unassigned) [Example 74B] gave an EC50 of 6.5 nM. `CCC1(CC)CC(=O)N([C@@H]2CCOc3ccc(C(=O)NC4c5ccccc5OC4(C)C)cc32)C(=N)N1` (single isomer, unassigned) [Example 133A] was tested, and the EC50 was 1.4 nM. In the case of `CCC1(CC)CC(=O)N([C@@H]2CCOc3ccc(C(=O)NC4c5ccccc5OC4(C)C)cc32)C(=N)N1` (single isomer, unassigned) [Example 133B], the EC50 is reported as 17 nM. With `CCC1(CC)CC(=O)N([C@@H]2CCOc3ccc(C(=O)NC4c5ccccc5OC4(C)CO)cc32)C(=N)N1` (single isomer, unassigned) [Example 176A] the EC50 was 29.2 nM. In the case of `CCC1(CC)CC(=O)N([C@@H]2CCOc3ccc(C(=O)NC4c5ccccc5OC4(C)CO)cc32)C(=N)N1` (single isomer, unassigned) [Example 176C], the EC50 is reported as 2.4 nM. `CCC1(CC)CC(=O)N([C@@H]2CCOc3ccc(C(=O)NC4c5ccccc5OC4(C)CO)cc32)C(=N)N1` (single isomer, unassigned) [Example 176D] gave an EC50 of 114 nM. `CCC1(CC)CC(=O)N(C2c3cc(C(=O)N[C@@H]4c5ccccc5C[C@H]4O)ccc3OC2(C)CO)C(=N)N1` (single isomer, unassigned) [Example 178A] gave an EC50 of 108 nM. With `CCC1(CC)CC(=O)N(C2c3cc(C(=O)N[C@@H]4c5ccccc5C[C@H]4O)ccc3OC2(C)CO)C(=N)N1` (single isomer, unassigned) [Example 178B] the EC50 was 2.2 nM. `CC[C@]1(C)CC(=O)N(C2CC(C)Oc3ccc(C(=O)N[C@@H]4c5ccccc5OC[C@@]4(C)O)cc32)C(=N)N1` (single isomer, unassigned) [Example 181A] gave an EC50 of 189 nM. With `CC[C@]1(C)CC(=O)N(C2CC(C)Oc3ccc(C(=O)N[C@@H]4c5ccccc5OC[C@@]4(C)O)cc32)C(=N)N1` (single isomer, unassigned) [Example 181B] the EC50 was 7.9 nM. With `CC[C@]1(C)CC(=O)N([C@@H]2CCOc3ccc(C(=O)NC4c5cc(F)ccc5OCC4(C)O)cc32)C(=N)N1` (single isomer, unassigned) [Example 190A] the EC50 was 261 nM. Work on `CC[C@]1(C)CC(=O)N([C@@H]2CCOc3ccc(C(=O)NC4c5cc(F)ccc5OCC4(C)O)cc32)C(=N)N1` (single isomer, unassigned) [Example 190B] yielded an EC50 of 2.6 nM.

Same assay, conditions: Plasmodium falciparum, Erythrocyte, 72 h, 0.7% rings, 2% haematocrit, 72 hours at 37° C., LDH readout of parasite growth
In the case of `CC(C)[C@]1(C)CC(=O)N([C@@H]2CCOc3ccc(C(=O)NC4c5ccccc5OC(C)(C)C4O)cc32)C(=N)N1` (single isomer, unassigned) [Example 11A], the EC50 is reported as 0.9 nM. For `CCC1(CC)CC(=O)N([C@@H]2CC(COC)Oc3ccc(C(=O)N[C@@H]4c5ccccc5C[C@H]4O)cc32)C(=N)N1` (single isomer, unassigned) [Example 17A], the EC50 was 2.7 nM. `CCC1(CC)CC(=O)N([C@@H]2CCOc3ccc(C(=O)N[C@@H]4c5ccccc5CC4(C)O)cc32)C(=N)N1` (single isomer, unassigned) [Example 44A] was tested, and the EC50 was 1.5 nM. In the case of `CC1(C)CC(=O)N([C@@H]2CC(C)(C)Oc3ccc(C(=O)N[C@@H]4c5ccccc5CC4(C)O)cc32)C(=N)N1` (single isomer, unassigned) [Example 54A], the EC50 is reported as 190 nM. `CCC1(CC)CC(=O)N([C@@H]2CCOc3ccc(C(=O)N[C@H]4c5ccccc5OCC4(C)O)cc32)C(=N)N1` (single isomer, unassigned) [Example 60A] showed an EC50 of 1.3 nM.

Reference: patent US12350270B2, “Antimalarial agents” (Merck Sharp & Dohme LLC, priority 2019, dated 2025)
